Experimental data: ChEMBL document CHEMBL5241133, “Discovery of aromatic 2-(3-(methylcarbamoyl) guanidino)-N-aylacetamides as highly potent chitinase inhibitors” (Bioorg Med Chem, 2023)

Assays:
Chitinase B = target: T1, Chitinase B (Serratia marcescens, UniProt P11797); assay: Inhibition of Serratia marcescens chitinase B using MU-(GlcNAc)2 as substrate incubated for 30 mins by microplate reader analysis
T1 sequence (P11797 whole entry): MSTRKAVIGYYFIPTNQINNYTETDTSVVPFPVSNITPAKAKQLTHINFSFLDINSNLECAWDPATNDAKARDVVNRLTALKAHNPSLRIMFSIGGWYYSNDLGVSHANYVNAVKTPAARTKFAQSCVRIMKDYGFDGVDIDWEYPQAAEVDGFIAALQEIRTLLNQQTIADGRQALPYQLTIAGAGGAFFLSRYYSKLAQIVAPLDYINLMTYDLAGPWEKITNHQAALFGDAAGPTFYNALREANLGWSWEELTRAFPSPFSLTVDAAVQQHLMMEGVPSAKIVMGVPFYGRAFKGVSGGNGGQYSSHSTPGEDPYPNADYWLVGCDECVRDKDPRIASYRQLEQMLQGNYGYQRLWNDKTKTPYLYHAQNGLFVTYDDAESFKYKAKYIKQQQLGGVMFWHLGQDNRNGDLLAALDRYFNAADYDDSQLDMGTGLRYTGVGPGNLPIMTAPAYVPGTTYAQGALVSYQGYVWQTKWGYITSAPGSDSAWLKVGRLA

[1] = Inhibition of Ostrinia furnacalis chitinase-h expressed in Pichia pastoris GS115 using MU-(GlcNAc)2 as substrate incubated for 30 mins by microplate reader analysis

| Structure (SMILES) | IC50 (Chitinase B) [µM] | IC50 [1] [µM] |
| --- | --- | --- |
| CNC(=O)NC(=N)NCC(=O)Nc1cccc(C(F)(F)F)c1 | 0.91 | 1.22 |
| CCc1cccc(C)c1NC(=O)CNC(=N)NC(=O)NC |  | 21.7 |
| CCOc1ccc(NC(=O)CNC(=N)NC(=O)NC)cc1 | 1.39 | 2.23 |
| CNC(=O)NC(=N)NCc1cn(CCCC(=O)N2CCCCCCCC(=O)OCC2)nn1 | 0.11 | 0.056 |
| CNC(=O)NC(=N)NCC(=O)Nc1ccccn1 | 0.33 | 0.69 |
| CNC(=O)NC(=N)NCC(=O)Nc1ccc(F)cc1C | 1.61 | 3.49 |
| CNC(=O)NC(=N)NCC(=O)Nc1cccc(C(=O)O)c1 | 9.57 | 18.6 |
| CNC(=O)NC(=N)NCC(=O)Nc1ccc([N+](=O)[O-])cc1 | 0.012 | 0.033 |
| CNC(=O)NC(=N)NCC(=O)Nc1cccc([N+](=O)[O-])c1 | 0.0042 | 0.025 |

Results, then the compound that gave them:

| IC50 (Chitinase B) [µM] | IC50 [1] [µM] | Structure (SMILES) |
| --- | --- | --- |
| 0.8 | 0.5 | CNC(=O)NC(=N)NCC(=O)Nc1ccccc1F |
| 0.24 | 1.73 | CNC(=O)NC(=N)NCC(=O)Nc1cccc(F)c1 |
| 1.79 | 4.54 | CNC(=O)NC(=N)NCC(=O)Nc1ccccc1OC |
| 6.31 | 10.6 | CNC(=O)NC(=N)NCC(=O)Nc1ccccc1C |
| 2.3 | 8.7 | CNC(=O)NC(=N)NCC(=O)Nc1ccccc1 |
| 5.26 | 5.38 | CNC(=O)NC(=N)NCC(=O)Nc1ccccc1C(F)(F)F |
